In one experiment the target is T1, EGFR (Homo sapiens, UniProt P00533).
T1 construct: made in house; host or cells: baculovirus expression system
The experiment in a line: EGFR substrate phosphorylation assay (HTRF). It is filed as biochemical. On the procedure:
(§1) Compounds of the present invention were tested for EGFR and ErbB-2 protein tyrosine kinase inhibitory activity in substrate phosphorylation assays using enzymes purified from a baculovirus expression system. Reagent production was conducted essentially as described in Brignola, P. S., et al, (2002) J. Biol. Chem. 277(2):1576-1585.
(§2) The method measures the ability of the isolated enzyme to catalyse the transfer of the gamma-phosphate from ATP onto the tyrosine residue of a biotinylated synthetic peptide referenced “Peptide C” in Brignola, P. S., et al, (2002) J. Biol. Chem. 277(2):1576-1585. The extent of tyrosine phosphorylation was measured using an anti-phosphotyrosine antibody, and quantified by homogenous time-resolved fluorescence (HTRF).
(§3) Reactions were performed in black 384-well polystyrene flat-bottom plates in a final volume of 20 μL. Assays were performed by adding 10 μL of each of the following solutions, Substrate Mix and Enzyme Mix: The Substrate Mix contained 100 mM 3-[N-morpholino]propanesulfonic acid (MOPS) (pH 7.5), 2 mM MnCl2, 20 μM ATP, 0.01% Tween-20, 0.1 mg/mL (BSA), 0.8 uM peptide substrate, and 1 mM dithiothreitol. The Enzyme Mix contained 100 mM MOPS (pH7.5); 0.01% Tween-20; 0.1 mg/mL BSA, and either 0.8 nM EGFR, 10 nM ErbB2, or 1 nM ErbB4. The Enzyme Mix was added to the compound plates and the plates were incubated at 20° C. for 1 hr. The reactions were then started by adding the Substrate Mix.
(§4) After initiating the reaction with the method described above, the reactions were allowed to proceed for 90 minutes at 20° C. The reactions were then terminated by the addition of 20 μL 100 mM EDTA to each well. 40 μL/well of HTRF detection mix were added to the assay plates. The final concentrations of the detection reagents were: 100 mM HEPES (pH7.5), 0.1 mg/mL BSA, 15 nM streptavidin-labeled allophycocyanin (PerkinElmer), and 1 nM europium-labeled anti-phosphotyrosine antibody (Perkin Elmer). Assay plates were left unsealed and were counted in a Wallac Multilabel Counter 1420 (PerkinElmer).
(§5) Compounds under analysis were dissolved in dimethylsulfoxide (DMSO) to 1.0 mM and serially diluted 1 to 3 with DMSO through twelve dilutions. 1 μL of each concentration was transferred to the corresponding well of an assay plate. This creates a final compound concentration range from 0.00027 to 47.6 μM.
(§6) The data for dose responses were plotted as % Inhibition calculated with the data reduction formula 100*(1-(U1−C2)/(C1−C2)) versus concentration of compound where U1 is the unknown value, C1 is the average control value obtained for 4.76% DMSO, and C2 is the average control value obtained for 0.035 M EDTA. Data were fitted with a curve described by:
(§7) where Vmax is the upper asymptote, Y2 is the Y intercept, and K is the IC50. The results for each compound were recorded as pIC50s, calculated as follows: […]

In another experiment the target is T2, ErbB2 (Homo sapiens, UniProt P04626).
T2 construct: made in house; host or cells: baculovirus expression system
T2 sequence (P04626 23-1255): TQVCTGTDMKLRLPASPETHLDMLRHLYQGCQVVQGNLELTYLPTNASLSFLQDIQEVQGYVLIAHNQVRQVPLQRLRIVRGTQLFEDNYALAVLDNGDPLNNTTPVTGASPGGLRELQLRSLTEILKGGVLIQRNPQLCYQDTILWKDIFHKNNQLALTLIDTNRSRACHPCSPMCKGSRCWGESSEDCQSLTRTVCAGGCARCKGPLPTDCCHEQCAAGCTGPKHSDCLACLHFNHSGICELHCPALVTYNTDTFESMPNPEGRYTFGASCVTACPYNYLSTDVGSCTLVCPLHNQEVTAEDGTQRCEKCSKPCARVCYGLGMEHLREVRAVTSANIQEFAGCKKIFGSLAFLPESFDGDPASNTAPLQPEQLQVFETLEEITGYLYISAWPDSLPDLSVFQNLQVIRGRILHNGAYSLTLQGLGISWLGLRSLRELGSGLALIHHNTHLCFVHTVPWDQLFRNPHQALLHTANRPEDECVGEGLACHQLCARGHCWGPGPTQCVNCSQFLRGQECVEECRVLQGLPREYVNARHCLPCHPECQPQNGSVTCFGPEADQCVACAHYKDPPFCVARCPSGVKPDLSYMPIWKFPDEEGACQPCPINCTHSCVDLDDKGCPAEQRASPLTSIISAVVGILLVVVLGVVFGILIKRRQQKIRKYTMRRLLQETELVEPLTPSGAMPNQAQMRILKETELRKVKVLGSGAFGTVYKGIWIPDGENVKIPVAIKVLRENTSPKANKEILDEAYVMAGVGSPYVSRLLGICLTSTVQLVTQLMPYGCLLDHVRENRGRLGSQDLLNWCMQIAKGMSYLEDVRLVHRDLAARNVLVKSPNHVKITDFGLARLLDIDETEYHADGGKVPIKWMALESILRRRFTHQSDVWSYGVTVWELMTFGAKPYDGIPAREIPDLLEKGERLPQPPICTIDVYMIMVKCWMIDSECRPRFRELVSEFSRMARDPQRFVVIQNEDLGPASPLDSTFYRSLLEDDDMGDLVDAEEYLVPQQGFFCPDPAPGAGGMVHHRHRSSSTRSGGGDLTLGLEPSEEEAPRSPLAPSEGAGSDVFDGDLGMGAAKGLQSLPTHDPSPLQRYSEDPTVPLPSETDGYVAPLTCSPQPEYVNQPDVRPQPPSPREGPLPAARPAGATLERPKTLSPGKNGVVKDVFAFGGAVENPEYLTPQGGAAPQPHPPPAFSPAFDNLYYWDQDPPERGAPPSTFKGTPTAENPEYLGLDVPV
The experiment in a line: ErbB-2 substrate phosphorylation assay (HTRF). It is filed as biochemical. The method, then:
as §1, §2, §3, §4, §5, §6, §7

Another experiment has as its target B-Raf (Homo sapiens, UniProt P15056). The experiment can be described thus: B-Raf Accelerated MEK ATPase assay (BRAMA), Method A or B. It is filed as biochemical. The following applies: Method B: final MEK 150 nM, single end point read. The method, then:
Compounds of the present invention were tested for B-Raf protein serine kinase inhibitory activity in a B-Raf Accelerated MEK ATPase assay (BRAMA). The BRAMA assay is a high sensitivity assay which measures an intrinsic MEK-mediated ATP hydrolysis uncoupled from downstream ERK phosphorylation by coupling the formation of ADP to NADH oxidation through the enzymes pyruvate kinase and lactate dehydrogenase. When ADP production is initiated by addition of catalytic amounts of an activated Raf enzyme and non-phosphorylated MEK, one observes robust ADP production concomitant with Raf-mediated phosphorylation of MEK.
Method A: Specific details of the assay are disclosed in: C. Rominger, M. Schaber, E. May. Assay for B-Raf Activity Based on Intrinsic MEK ATPase Activity. Statutory Invention Registration 11/084,993 (March, 2005). Method B: The method is the same as method A, but includes the following changes: 1) the assay was performed with a final MEK concentration of 150 nM and 2) the assay was read as single end point instead of a kinetic read.

Another experiment concerns Colo205 tumor cells. The experiment can be described thus: Cell growth inhibition assay (CellTiter-Glo), Colo205. The following applies: Homo sapiens, COLO 205, 72 h; 3 days incubation. It is filed as cell-based, Human. The method, then:
(§8) Human breast tumor cells (BT474) were cultured in RPMI (Mediatech […]), containing 10% FBS (JRH Biosciences 12176) and 1% penicillin-streptomycin (Invitrogen 15140). Human head and neck tumor cells (HN5) were cultured in high glucose DMEM (Mediatech 50-013-PB) containing 10% FBS and 1% penicillin-streptomycin. Human colon tumor cells (Colo205) were cultured in RPMI (Mediatech 50-020-PB) containing 10% FBS and 1% penicillin-streptomycin. Human melanoma cancer cells (SK-MEL-28) were cultured in EMEM with nonessential amino acids (Mediatech 50-011-PB) containing 10% FBS, 1% sodium pyruvate (JT Baker 3354-04), and 1% penicillin-streptomycin. Human melanoma cancer cells (A375P F11s) were cultured in RPMI (Mediatech 50-020-PB) containing 10% FBS, 1% sodium pyruvate, and 1% penicillin-streptomycin. Human colon cancer cells (HT-29) were cultured in high glucose DMEM (Mediatech 50-013-PB) containing 10% FBS and 1% penicillin-streptomycin. Human melanoma cancer cells (SK-MEL-3) were cultured in McCoy's 5A (50-025-PB) containing 15% FBS, and 1% penicillin-streptomycin. All cell lines were maintained at 37° C. in a humidified 5% CO2, 95% air incubator. Cells were harvested using trypsin/EDTA (Invitrogen 25200), counted using a haemocytometer, and plated. For 96-well assays (using white full-area NUNC plates cat. #136102), cells were plated in 105 μL at the following densities (cells/well): HNS, 500; Colo 205, 500; SK-MEL-28, 500; A375P F11s, 500; HT-29, 500; SK-MEL-3, 500; and BT474, 3000. For 384-well assays (white full-area NUNC plates, cat. #781080), cells were plated in 48 μL at the following densities (cells/well): HNS, 500; Colo205, 500; SK-MEL-28, 500; A375P F11s, 500; HT-29, 500; SK-MEL-3, 500; and BT474, 2000.
(§9) The next day, compounds were diluted as follow: For 96-well assays, 13.5 μL of compound in DMSO were diluted using nine (9) serial 1:3 dilutions of 4.5 μL in 9 of DMSO. Medium (270 μL/well of RPMI with 10% FBS and 1% penicillin-streptomycin) was added to the plates. Aliquots (7 μL) were added to cells in the final assay giving a final DMSO concentration of 0.2%. For 384-well assays, 15 μL of compound in DMSO were diluted using nine (9) serial 1:3 dilutions of 5 μL in 10 μL of DMSO, followed by a further dilution of 5 μL of compound with 95 μL of medium, of which 2 μL were added to cells in the final assay giving a final DMSO concentration of 0.2%. Cells were incubated at 37° C., 5% CO2 for 3 days.
(§10) Total ATP was measured (as a surrogate estimate of cell number) using CellTiter-Glo® reagent (Promega G7571). Briefly, plates were removed from the incubator and allowed to equilibrate to room temperature for 30 minutes. CellTiter-Glo® (25 μL or 55 μL for 384-well or 96-well assays, respectively) reagent was added to each well and plates were shaken on an orbital plate shaker for 2 minutes. Plates were incubated without shaking for a further 30 minutes and read on an LJL Analyst GT reader in luminometer mode with an integration time of 0.5 seconds per well. Percent inhibition of cell growth was calculated relative to DMSO vehicle-treated control wells. Concentration of compound required to give 50% inhibition of vehicle-treated control cell growth (IC50) was interpolated using a 4-parameter fit for determining IC50 using the following equation: Y=A +((B−A)/(1+((C/X)̂D))) where […].

For a further experiment, the system named is SK-MEL-28 tumor cells. The experiment in a line: Cell growth inhibition assay (CellTiter-Glo), SK-MEL-28. It is filed as cell-based, Human. To be noted: Homo sapiens, SK-MEL-28, 72 h; 3 days incubation. The method, then: as §8, §9, §10

T1 sequence (P00533 25-1210): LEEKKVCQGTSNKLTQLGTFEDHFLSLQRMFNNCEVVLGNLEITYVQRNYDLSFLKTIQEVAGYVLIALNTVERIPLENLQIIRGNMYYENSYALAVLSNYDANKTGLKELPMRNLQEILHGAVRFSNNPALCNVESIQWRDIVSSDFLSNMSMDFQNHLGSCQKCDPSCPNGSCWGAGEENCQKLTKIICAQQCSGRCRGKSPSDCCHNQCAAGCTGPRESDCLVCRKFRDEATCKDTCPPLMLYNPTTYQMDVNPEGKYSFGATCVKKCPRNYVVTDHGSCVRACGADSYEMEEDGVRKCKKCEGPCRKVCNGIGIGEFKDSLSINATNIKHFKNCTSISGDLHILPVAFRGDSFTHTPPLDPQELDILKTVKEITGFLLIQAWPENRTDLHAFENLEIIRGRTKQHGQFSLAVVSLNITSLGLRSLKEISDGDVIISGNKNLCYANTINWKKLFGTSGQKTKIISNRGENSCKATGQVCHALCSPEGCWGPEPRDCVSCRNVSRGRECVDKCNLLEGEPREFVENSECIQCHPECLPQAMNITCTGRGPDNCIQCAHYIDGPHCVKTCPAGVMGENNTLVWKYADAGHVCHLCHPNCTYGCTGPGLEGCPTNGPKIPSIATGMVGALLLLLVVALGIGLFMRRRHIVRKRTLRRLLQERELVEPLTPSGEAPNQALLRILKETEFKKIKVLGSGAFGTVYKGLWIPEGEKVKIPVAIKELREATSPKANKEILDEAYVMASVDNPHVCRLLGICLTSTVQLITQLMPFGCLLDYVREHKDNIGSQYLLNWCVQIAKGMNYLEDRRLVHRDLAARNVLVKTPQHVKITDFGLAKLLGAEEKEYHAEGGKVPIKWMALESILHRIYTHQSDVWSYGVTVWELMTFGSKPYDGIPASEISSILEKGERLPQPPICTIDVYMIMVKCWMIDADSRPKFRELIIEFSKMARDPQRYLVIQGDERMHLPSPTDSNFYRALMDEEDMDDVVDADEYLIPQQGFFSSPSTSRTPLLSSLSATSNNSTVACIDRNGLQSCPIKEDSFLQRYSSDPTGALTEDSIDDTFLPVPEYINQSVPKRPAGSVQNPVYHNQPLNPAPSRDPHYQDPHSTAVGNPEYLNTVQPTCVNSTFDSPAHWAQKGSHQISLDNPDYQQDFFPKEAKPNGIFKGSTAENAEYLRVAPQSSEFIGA
Chain of B-Raf (P15056 whole entry): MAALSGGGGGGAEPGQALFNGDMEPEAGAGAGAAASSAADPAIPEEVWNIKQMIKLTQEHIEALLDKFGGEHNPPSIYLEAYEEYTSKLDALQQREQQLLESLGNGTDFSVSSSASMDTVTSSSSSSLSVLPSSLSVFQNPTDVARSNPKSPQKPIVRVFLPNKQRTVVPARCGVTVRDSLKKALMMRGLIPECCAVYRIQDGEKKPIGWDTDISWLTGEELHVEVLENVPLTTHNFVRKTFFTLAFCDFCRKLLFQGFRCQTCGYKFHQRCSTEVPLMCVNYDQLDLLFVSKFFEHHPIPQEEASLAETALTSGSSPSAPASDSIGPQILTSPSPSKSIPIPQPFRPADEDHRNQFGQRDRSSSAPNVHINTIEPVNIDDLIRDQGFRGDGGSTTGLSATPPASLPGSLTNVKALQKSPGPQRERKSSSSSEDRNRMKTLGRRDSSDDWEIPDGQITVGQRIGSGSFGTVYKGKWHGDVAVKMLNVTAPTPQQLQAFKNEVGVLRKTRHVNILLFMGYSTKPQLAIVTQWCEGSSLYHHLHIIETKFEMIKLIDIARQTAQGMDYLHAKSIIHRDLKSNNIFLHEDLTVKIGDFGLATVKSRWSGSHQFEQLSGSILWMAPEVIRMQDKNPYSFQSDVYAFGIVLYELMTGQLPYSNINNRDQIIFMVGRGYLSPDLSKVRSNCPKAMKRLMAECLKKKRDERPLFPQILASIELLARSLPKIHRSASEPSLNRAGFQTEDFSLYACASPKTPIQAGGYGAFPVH

`Cc1cc(S(=O)(=O)Nc2cccc(-c3nc(C(C)C)sc3-c3ccnc(Nc4ccc(N5CCOCC5)nc4)n3)c2)c(F)cc1Cl` [Example 105]: the IC50 at EGFR was above 1 µM; on ErbB2, 0.1 to 1 µM; at B-Raf it was 0.1 to 1 µM; in the experiment with Colo205 tumor cells, 0.1 to 1 µM; in the experiment with SK-MEL-28 tumor cells it was above 1 µM.
As to `CC(C)c1nc(-c2cccc(NS(=O)(=O)Cc3ccccc3)c2)c(-c2ccnc(Nc3ccc(N4CCOCC4)c(F)c3)n2)s1` [Example 86], the 50% inhibitory concentration (IC50) at EGFR is above 1 µM; at ErbB2, above 1 µM; against B-Raf, 0.1 to 1 µM; in the experiment with Colo205 tumor cells, above 1 µM; in the experiment with SK-MEL-28 tumor cells, above 1 µM.
For `COc1cc(N2CCC(CCS(C)(=O)=O)CC2)c(C)cc1Nc1nccc(-c2sc(C(C)C)nc2-c2ccnc(NS(=O)(=O)c3c(F)cccc3F)c2)n1` [Example 108], the IC50 against EGFR is above 1 µM; against ErbB2 it was above 1 µM; at B-Raf, below 0.1 µM; with Colo205 tumor cells it was 0.1 to 1 µM; in the experiment with SK-MEL-28 tumor cells, above 1 µM.
For the compound `CCc1nc(-c2ccc(F)c(NS(=O)(=O)c3ccccc3)c2)c(-c2ccnc(Nc3ccc(N4CCN(C(C)C)CC4)cc3OC)n2)s1` [Example 69], the IC50 against EGFR is 0.1 to 1 µM; against ErbB2, 0.1 to 1 µM; on B-Raf, 0.1 to 1 µM; in the experiment on Colo205 tumor cells, above 1 µM; in the experiment with SK-MEL-28 tumor cells it was above 1 µM.
As to `O=S(=O)(Nc1cc(-c2nc(N3CCCC3)oc2-c2ccnc(Nc3ccc(N4CCOCC4)c(F)c3)n2)ccc1F)c1ccccc1F` [Example 59], the IC50 against EGFR was above 1 µM; on ErbB2, above 1 µM; at B-Raf it was below 0.1 µM; in the experiment on Colo205 tumor cells, 0.1 to 1 µM; in the experiment with SK-MEL-28 tumor cells, 0.1 to 1 µM.
On to `CC(C)c1nc(-c2ccc(F)c(NS(=O)(=O)c3c(F)cccc3F)c2)c(-c2ccnc(Nc3ccc(N4CCN(CCS(C)(=O)=O)CC4)c(F)c3)n2)o1` [Example 61], for which the IC50 is above 1 µM at EGFR; 0.1 to 1 µM against ErbB2; below 0.1 µM on B-Raf; 0.1 to 1 µM in the experiment with Colo205 tumor cells; 0.1 to 1 µM with SK-MEL-28 tumor cells.
As for `COc1cc(C)ccc1S(=O)(=O)Nc1cccc(-c2nc(C(C)C)sc2-c2ccnc(Nc3ccc(N4CCN(C(C)=O)CC4)nc3)n2)c1` [Example 76], the IC50 at EGFR is above 1 µM; on ErbB2, above 1 µM; against B-Raf, 0.1 to 1 µM; in the experiment with Colo205 tumor cells, above 1 µM; in the experiment with SK-MEL-28 tumor cells, above 1 µM.
As for `COc1cc(N2CCN(CCS(C)(=O)=O)CC2)c(C)cc1Nc1nccc(-c2sc(C3CCOCC3)nc2-c2cccc(NS(=O)(=O)c3c(F)cccc3F)c2F)n1` [Example 177], the IC50 against EGFR, against ErbB2, against B-Raf, in the experiment with Colo205 tumor cells and with SK-MEL-28 tumor cells was below 0.1 µM in each case.
With `COc1ccc(S(C)(=O)=O)cc1Nc1nccc(-c2sc(C(C)C)nc2-c2cccc(NS(=O)(=O)c3c(F)cccc3F)c2F)n1` [Example 165], the IC50 on EGFR was 0.1 to 1 µM; at ErbB2, 0.1 to 1 µM; on B-Raf, below 0.1 µM; with Colo205 tumor cells it was below 0.1 µM; with SK-MEL-28 tumor cells, below 0.1 µM.
With `COc1ccc(S(C)(=O)=O)cc1Nc1nccc(-c2sc(N3CCOCC3)nc2-c2cccc(NS(=O)(=O)c3c(F)cccc3F)c2Cl)n1` [Example 164], the IC50 on EGFR was above 1 µM; against ErbB2, above 1 µM; on B-Raf, below 0.1 µM; in the experiment with Colo205 tumor cells, below 0.1 µM; in the experiment on SK-MEL-28 tumor cells, below 0.1 µM.
With `CC(C)c1nc(-c2cccc(NS(=O)(=O)c3cnn(C)c3)c2)c(-c2ccnc(Nc3ccc(N4CCOCC4)nc3)n2)s1` [Example 174], the IC50 is above 1 µM on EGFR; above 1 µM against ErbB2; below 0.1 µM on B-Raf; below 0.1 µM in the experiment with Colo205 tumor cells; below 0.1 µM with SK-MEL-28 tumor cells.
Regarding `COc1cc2c(cc1Nc1nccc(-c3sc(C(C)C)nc3-c3cccc(NS(=O)(=O)c4c(F)cccc4F)c3)n1)N(C(=O)CN(C)C)CC2` [Example 118], the 50% inhibitory concentration (IC50) was 0.1 to 1 µM at EGFR; 0.1 to 1 µM at ErbB2; 0.1 to 1 µM on B-Raf; above 1 µM in the experiment with Colo205 tumor cells; above 1 µM with SK-MEL-28 tumor cells.

The values above are taken from US20110319392A1, “Thiazole Sulfonamide And Oxazole Sulfonamide Kinase Inhibitors” (priority 2009, published 2011).
